According to publication PMC9291665, “Discovery and SAR analysis of 5-chloro-4-((substituted phenyl)amino)pyrimidine bearing histone deacetylase inhibitors” (Journal of Enzyme Inhibition and Medicinal Chemistry, 2022):

Assays:
Fadu = experiment: In vitro antiproliferative assay (CCK-8), Fadu; format: cell-based; settings: Homo sapiens, CCK-8, 72 h
Description: (§1) The proliferation of cancer cells was tested by CCK-8 assay. Briefly, cells were seeded in 96-well plate with about 5 × 10^3 cells in each well. The cells were treated with tested compounds after 24 h of incubation. CCK-8 reagent ([…]) was added to each well after 72 h of incubation, and cells were incubated at 37 °C for 4 h. The light absorbance at 450 nm was measured by using an Opsys microplate reader (Dynex Technologies, Chantilly, VA, USA).

HDAC6 = molecular target: T1, HDAC6 (Homo sapiens, UniProt Q9UBN7); experiment: HDAC enzyme inhibitory selectivity test, HDAC6; format: biochemical; settings: mean of three experiments
T1 construct: purchased BPS Bioscience
T1 sequence (Q9UBN7 1-1215): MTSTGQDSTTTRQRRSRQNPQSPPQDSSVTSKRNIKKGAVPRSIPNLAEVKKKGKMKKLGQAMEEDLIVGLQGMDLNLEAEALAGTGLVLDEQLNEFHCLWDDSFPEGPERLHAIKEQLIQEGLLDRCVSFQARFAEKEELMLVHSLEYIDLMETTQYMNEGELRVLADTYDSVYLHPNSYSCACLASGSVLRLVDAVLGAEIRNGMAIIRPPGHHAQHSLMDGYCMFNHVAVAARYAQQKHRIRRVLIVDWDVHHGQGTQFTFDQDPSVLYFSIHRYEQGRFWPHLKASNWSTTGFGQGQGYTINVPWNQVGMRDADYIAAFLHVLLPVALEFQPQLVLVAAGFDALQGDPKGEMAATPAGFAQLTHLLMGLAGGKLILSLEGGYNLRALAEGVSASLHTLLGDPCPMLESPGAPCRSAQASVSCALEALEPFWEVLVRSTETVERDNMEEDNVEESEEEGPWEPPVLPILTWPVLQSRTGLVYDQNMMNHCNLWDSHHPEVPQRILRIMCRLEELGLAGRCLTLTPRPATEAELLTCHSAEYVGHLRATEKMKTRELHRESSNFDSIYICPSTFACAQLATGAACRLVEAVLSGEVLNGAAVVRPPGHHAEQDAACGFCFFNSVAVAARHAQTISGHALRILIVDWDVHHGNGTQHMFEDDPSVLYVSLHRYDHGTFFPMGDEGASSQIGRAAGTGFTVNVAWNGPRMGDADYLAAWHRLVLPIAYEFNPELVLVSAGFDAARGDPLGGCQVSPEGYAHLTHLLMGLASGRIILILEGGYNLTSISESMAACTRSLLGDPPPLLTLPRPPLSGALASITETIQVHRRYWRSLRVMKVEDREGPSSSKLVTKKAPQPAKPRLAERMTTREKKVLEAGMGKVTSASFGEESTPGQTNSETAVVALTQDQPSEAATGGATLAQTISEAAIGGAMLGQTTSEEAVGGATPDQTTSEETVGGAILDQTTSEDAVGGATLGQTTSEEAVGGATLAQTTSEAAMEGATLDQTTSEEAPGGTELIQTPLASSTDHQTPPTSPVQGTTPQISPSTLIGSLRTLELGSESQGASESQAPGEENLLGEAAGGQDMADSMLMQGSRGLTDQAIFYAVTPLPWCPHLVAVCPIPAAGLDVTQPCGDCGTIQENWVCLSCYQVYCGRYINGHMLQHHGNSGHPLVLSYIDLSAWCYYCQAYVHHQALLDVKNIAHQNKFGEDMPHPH
Description: (§2) Therefore, molecule L20 was evaluated in the HDAC enzyme inhibitory selectivity test against HDAC1, 2, 3 and 6 (Table 2).
(§3) All HDAC enzymes were purchased from BPS Bioscience. In short, 60 µL of recombinant HDAC enzyme solution was mixed with various concentrations of test compound (40 µL), and then incubated at 37 °C for 30 minutes. The reaction was terminated by adding 100 µL of imaging agent containing trypsin and trichostatin A (TSA). After standing for 20 min, the fluorescence intensity was measured at the excitation and emission wavelengths of 360 and 460 nm with a microplate reader. The inhibition rate was calculated from the fluorescence intensity readings of the test wells relative to the control wells, and the IC50 curve and value were determined by GraphPad Prism 6.0 software.

A2780 = experiment: In vitro antiproliferative assay (CCK-8), A2780; format: cell-based; settings: Homo sapiens, CCK-8, 72 h
Description: as §1

HDAC3 = molecular target: T2, HDAC3 (Homo sapiens, UniProt O15379); experiment: HDAC enzyme inhibitory selectivity test, HDAC3; format: biochemical
T2 construct: purchased BPS Bioscience
Description: as §2, §3

HepG2 = experiment: In vitro antiproliferative assay (CCK-8), HepG2; format: cell-based; settings: Homo sapiens, CCK-8, 72 h
Description: as §1

[1] = system: Hela nucleus extract containing a mixture of HDAC isoforms; experiment: HDAC enzyme inhibitory screening against Hela nucleus extract; format: biochemical; settings: at concentration of 1.0 µM, mean of three experiments
Description: The synthesised molecules were firstly screened against Hela nucleus extract containing a mixture of HDAC isoforms.
as §3

U266 = experiment: In vitro antiproliferative assay (CCK-8), U266; format: cell-based; settings: Homo sapiens, U-266, CCK-8, 72 h
Description: as §1

K562 cells [2] = experiment: Cell cycle analysis by flow cytometry (PI); settings: 24 h, first peak in Figure 5
Description: After treatment, cells were collected and fixed with 70% pre-cold ethanol in PBS and stored at −20 °C overnight. Then washed the cells with PBS twice, and incubated with 100 µg/mL RNase I (Solarbio, China) at 37 °C for 1 h, stained with propidium iodide (PI, 10 µg/mL, Solarbio, China) for 30 min avoid light at room temperature. Finally, DNA content was measured by flow cytometry (FACSAriaIII, Becton Dickinson, USA). The data were analysed and fitted by ModFit software.

U937 = experiment: In vitro antiproliferative assay (CCK-8), U937; format: cell-based; settings: Homo sapiens, U-937, CCK-8, 72 h
Description: as §1

MDA-MB-468 = experiment: In vitro antiproliferative assay (CCK-8), MDA-MB-468; format: cell-based; settings: Homo sapiens, CCK-8, 72 h
Description: (§4) Compound L20 with good performances in both enzyme and K562 cell inhibitory tests were selected for further antiproliferative assay against various cell lines. K562, U266, U937, C6, Fadu, MDA-MB-231, MDA-MB-468, A549, A2780 and HepG2 cell lines were used in the cell-based anticancer evaluation of L20.
as §1, with “USA). Results are illustrated as percent of cell viability normalised to DMSO-treated control cells.” for “USA).”

MDA-MB-231 = experiment: In vitro antiproliferative assay (CCK-8), MDA-MB-231; format: cell-based; settings: Homo sapiens, CCK-8, 72 h
Description: as §4
as §1, with “USA). Results are illustrated as percent of cell viability normalised to DMSO-treated control cells.” for “USA).”

A549 = experiment: In vitro antiproliferative assay (CCK-8), A549; format: cell-based; settings: Homo sapiens, CCK-8, 72 h
Description: as §1

K562 cells [3] = experiment: Cell apoptosis analysis by flow cytometry (Annexin V-BV421 / 7-AAD); settings: 24 h, control 1.14%
Description: Cells were incubated with Annexin V-BV421 (Becton Dickinson, USA) and 7-AAD (Becton Dickinson, USA) double labelling for 30 min in the dark at room temperature and measured by flow cytometry (FACSAriaIII, Becton Dickinson, USA). The data was analysed using Flowjo-V10 software.

HDAC2 = molecular target: T3, HDAC2 (Homo sapiens, UniProt Q92769); experiment: HDAC enzyme inhibitory selectivity test, HDAC2; format: biochemical
T3 construct: purchased BPS Bioscience
Description: as §2, §3

C6 = experiment: In vitro antiproliferative assay (CCK-8), C6; format: cell-based; settings: Rattus norvegicus, CCK-8, 72 h
Description: as §1

K562 cells [4] = experiment: In vitro antiproliferative assay (CCK-8), K562; format: cell-based; settings: Homo sapiens
Description: as §1

HDAC1 = molecular target: T4, HDAC1 (Homo sapiens, UniProt Q13547); experiment: HDAC enzyme inhibitory selectivity test, HDAC1; format: biochemical
T4 construct: purchased BPS Bioscience
Description: as §2, §3

T2 sequence (O15379 whole entry): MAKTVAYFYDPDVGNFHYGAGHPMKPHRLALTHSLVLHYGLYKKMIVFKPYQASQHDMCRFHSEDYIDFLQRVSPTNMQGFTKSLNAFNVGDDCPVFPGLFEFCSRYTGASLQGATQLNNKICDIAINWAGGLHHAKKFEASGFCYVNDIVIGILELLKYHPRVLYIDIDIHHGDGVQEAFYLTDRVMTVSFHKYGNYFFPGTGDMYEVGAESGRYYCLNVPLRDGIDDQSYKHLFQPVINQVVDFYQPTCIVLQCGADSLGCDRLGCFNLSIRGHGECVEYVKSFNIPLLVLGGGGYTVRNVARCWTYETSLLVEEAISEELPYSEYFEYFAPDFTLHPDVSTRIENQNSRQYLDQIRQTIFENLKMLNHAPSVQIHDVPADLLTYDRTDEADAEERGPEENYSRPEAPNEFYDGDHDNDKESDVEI
T2 sequence (Q9Y618 395-489 partner limits assumed): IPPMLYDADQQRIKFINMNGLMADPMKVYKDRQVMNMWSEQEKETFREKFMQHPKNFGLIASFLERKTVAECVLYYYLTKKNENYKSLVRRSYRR
T4 sequence (Q13547 whole entry): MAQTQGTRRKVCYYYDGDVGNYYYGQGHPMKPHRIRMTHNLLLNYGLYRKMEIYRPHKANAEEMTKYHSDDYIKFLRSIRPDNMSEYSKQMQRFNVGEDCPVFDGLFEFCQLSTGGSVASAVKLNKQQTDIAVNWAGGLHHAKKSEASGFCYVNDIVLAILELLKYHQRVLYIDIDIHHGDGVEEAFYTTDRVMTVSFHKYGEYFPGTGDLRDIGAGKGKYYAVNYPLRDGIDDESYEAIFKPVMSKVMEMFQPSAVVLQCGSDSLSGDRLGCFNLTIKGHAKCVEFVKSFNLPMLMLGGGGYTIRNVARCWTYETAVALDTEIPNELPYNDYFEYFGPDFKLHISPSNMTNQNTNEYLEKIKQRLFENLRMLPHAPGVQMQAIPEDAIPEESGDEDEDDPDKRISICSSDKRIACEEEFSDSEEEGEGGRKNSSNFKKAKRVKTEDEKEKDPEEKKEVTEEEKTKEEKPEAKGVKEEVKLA
T3 sequence (Q92769 whole entry): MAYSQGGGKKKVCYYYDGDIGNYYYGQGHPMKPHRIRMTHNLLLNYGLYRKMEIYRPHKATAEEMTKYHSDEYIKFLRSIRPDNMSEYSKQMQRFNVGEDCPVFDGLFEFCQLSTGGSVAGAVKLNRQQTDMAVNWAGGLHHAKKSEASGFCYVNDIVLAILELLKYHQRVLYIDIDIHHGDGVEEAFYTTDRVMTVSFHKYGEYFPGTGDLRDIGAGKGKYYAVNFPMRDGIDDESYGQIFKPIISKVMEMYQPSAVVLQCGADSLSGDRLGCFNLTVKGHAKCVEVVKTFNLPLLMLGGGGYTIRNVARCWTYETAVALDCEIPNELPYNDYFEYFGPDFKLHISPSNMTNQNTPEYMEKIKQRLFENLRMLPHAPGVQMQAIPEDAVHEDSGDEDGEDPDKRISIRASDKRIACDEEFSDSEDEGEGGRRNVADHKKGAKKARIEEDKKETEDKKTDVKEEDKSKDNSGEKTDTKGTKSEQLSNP

Q: What does the source list for `COc1cc(Nc2nc(N3CCN(c4ncc(C(=O)NO)cn4)CC3)ncc2Cl)cc(OC)c1` [Compound L20, 2–(4-(5-chloro-4-((3,5-dimethoxyphenyl)amino)pyrimidin-2-yl)piperazin-1-yl)-N-hydroxypyrimidine-5-carboxamide]?
A: IC50 (Fadu): 1.42 ± 0.05 µM; IC50 (HDAC6): > 1000 µM; IC50 (A2780): 0.97 ± 0.02 µM; selectivity index HDAC3 compared with HDAC6 (HDAC3; HDAC3 vs HDAC6): > 4608; IC50 (HDAC3; mean of three experiments): 0.217 ± 0.008 µM; IC50 (HepG2): 3.17 ± 0.15 µM; HDACs percentage inhibitory rate [1]: 72.52 ± 1.26%; IC50 (U266): 0.28 ± 0.01 µM; G0/G1 phase ratio of K562 cells (K562 cells [2]; 1 µM): 19.34%; G0/G1 phase ratio of K562 cells (K562 cells [2]; 2 µM): 44.85%; IC50 (U937): 0.76 ± 0.03 µM; IC50 (MDA-MB-468): 2.23 ± 0.09 µM; IC50 (MDA-MB-231): 1.63 ± 0.06 µM; IC50 (A549): 1.06 ± 0.03 µM; apoptotic rate of K562 cells (K562 cells [3]; 1 µM): 2.51%; apoptotic rate of K562 cells (K562 cells [3]; 2 µM): 11.87%; apoptotic rate of K562 cells (K562 cells [3]; 4 µM): 17.60%; selectivity index HDAC2 compared with HDAC6 (HDAC2; HDAC2 vs HDAC6): > 392; IC50 (HDAC2; mean of three experiments): 2.55 ± 0.079 µM; IC50 (C6): 1.98 ± 0.1 µM; IC50 (K562 cells [4]; CCK-8, 72 h): 0.34 ± 0.02 µM; inhibition at 1 µM (K562 cells [4]; at concentration of 1.0 µM, mean of three experiments, read-out: K562 percentage inhibitory rate): 74.2 ± 1.18%; selectivity index HDAC1 compared with HDAC6 (HDAC1; HDAC1 vs HDAC6): > 1462; IC50 (HDAC1; mean of three experiments): 0.684 ± 0.016 µM
